The text below walks through data of EP0446604A2, “Pyridine and related aza heterocycle derivatives as cardiovascular agents” (AMERICAN CYANAMID COMPANY, priority 1990, dated 1991).

Where a name gives a salt, the structure may show the parent alone.

The target in assay [1] is T1, thromboxane synthetase enzyme (Rattus norvegicus, UniProt P49430).
T1 construct: from tissue; host or cells: washed blood platelets from Okamoto-Aoki spontaneously hypertensive rats (SHR)
T1 sequence (P49430 1-533): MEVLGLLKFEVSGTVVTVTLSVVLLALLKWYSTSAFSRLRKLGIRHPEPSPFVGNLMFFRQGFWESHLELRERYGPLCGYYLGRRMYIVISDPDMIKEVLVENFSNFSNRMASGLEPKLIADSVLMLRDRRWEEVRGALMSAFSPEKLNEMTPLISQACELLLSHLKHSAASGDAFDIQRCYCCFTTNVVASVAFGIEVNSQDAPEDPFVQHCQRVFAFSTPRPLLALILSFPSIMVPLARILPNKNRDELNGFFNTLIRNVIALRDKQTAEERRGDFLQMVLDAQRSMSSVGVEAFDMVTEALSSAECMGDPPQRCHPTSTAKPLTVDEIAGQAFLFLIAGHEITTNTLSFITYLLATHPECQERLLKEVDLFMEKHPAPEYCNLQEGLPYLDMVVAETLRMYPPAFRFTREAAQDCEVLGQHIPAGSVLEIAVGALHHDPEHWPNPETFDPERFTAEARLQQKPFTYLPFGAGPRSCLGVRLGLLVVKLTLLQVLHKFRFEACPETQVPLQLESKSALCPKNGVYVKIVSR
The assay is described as follows: Inhibition of thromboxane (TXB2) formation in washed rat platelets, TXB2 radioimmunoassay. The format is biochemical, Okamoto-Aoki spontaneously hypertensive rats (SHR). Particulars: Concentration 1x10^-4M, platelet suspension incubated 10 minutes at 37 °C. As to the method:
Under urethan anesthesia, […] of arterial blood from Okamoto-Aoki spontaneously hypertensive rats (SHR) (Taconic Farms, Germantown, NY) between 19 and 24 weeks in age is collected in one ml of 3.2% sodium citrate in a polystyrene tube. The blood is diluted with 3 ml of cold saline and centrifuged at room temperature for 15 minutes at 460xg. The platelet rich plasma (PRP) is separated. The platelets are isolated by centrifuging the PRP for 10 minutes at 1060xg and are washed in 4 ml of cold oxygenated Krebs phosphate buffer, pH 7.4. The chilled platelets, recovered from centrifuging at 800xg for 10 minutes, are resuspended in oxygenated Krebs phosphate buffer and diluted to contain 4.5-6.0 x 10⁴ platelets/µ1. The inhibition of thromboxane (TX) formation is studied by determining the concentration of thromboxane B₂ (TXB₂), the stable hydrolysis product of TXA₂. Assay samples, prepared on ice, contain 200 µ1 platelet suspension, 50 µ1 saline, and 50 µ1 vehicle (saline) or drug under study. The samples are incubated for 10 minutes at 37 °C in a metabolic shaker. The reaction is terminated by immersing the tubes in an ice bath and adding 50 µl of 0.5M citric acid. The samples are centrifuged for 10 minutes in a refrigerated centrifuge and the supernatants thus obtained are decanted and stored at -20 °C. The TXB₂ content for each sample is determined by a direct radioimmunoassay (RIA) utilizing a TXB₂ specific RIA kit purchased from New England Nuclear, Boston, MA and expressed as pg TXB₂ formed per minute per sample, from which the percent inhibition of TXB₂ formation is calculated.

Assay [2] relates to spontaneously hypertensive rats of the Okamoto strain. The assay is described as follows: Hypotensive activity in spontaneously hypertensive rats (method of Chan and Poorvin). In kind it is in vivo. The note with it: by gavage, 100 mg/kg or less, second identical dose 24 hours later, MABP measured 28 hours after initial dose, average MABP of the rats used 160±1.5 mm of mercury. As to the method: The novel compounds of the present invention are active hypotensive agents and were tested for hypotensive activity by the method of P.S. Chan and D. Poorvin, Clinical and Experimental Hypertension, 1 (6), 817-830 (1979). Male, 16 week old, spontaneously hypertensive rats of the Okamoto strain, from Taconic Farms, Germantown, New York, having an average mean arterial blood pressure of 160±1.5 mm of mercury, were used in the test. One to four rats were used per test compound. A rat is dosed by gavage with a test compound suspended in 2% pre-boiled starch at a concentration of 50 mg/ml, at a dose of 100 mg/kg of body weight or less, with 0.9% sodium chloride loading at a dose of 25 ml/kg of body weight. A second identical dose of the test compound, without sodium chloride loading is given 24 hours later. At 28 hours after the initial dose the mean arterial blood pressure (MABP) is measured. The procedure is repeated in a second and third rat when necessary. The results of this test on representative compounds of the present invention appear below in Table II.

Assay [3] relates to Male mice of the Swiss Webster Strain. As to the kind of experiment: Calcium chloride-induced arrhythmia in anesthetized mice (survival). The format is in vivo. The note with it: Mus musculus, iv, Dose = 10 mg/kg i.v.; calcium chloride 200 mg/kg i.v. bolus 5, 15 or 30 minutes after drug; observed 15 minutes; read-out: CaCl2 #Mice Surviving #Mice Tested (converted). The text has this:
(§1) Intravenous administration of high doses of calcium or potassium chloride in animals produces cardiac arrhythmias, cardiac fibrillation and cardiac arrest. Any agent that can prevent these events is considered an antiarrhythmic/antifibrillatory agent. (Meth. and Find Exptl. Clin Pharmacol.2:223-252(1980); Pharmacol, Ther. 24:401-433 (1984); Experimental Cardiac and Antiarrhythmic Drugs, L. Szekeres and Gy. J. Dapp, Akademiai Kiado Preso, Budapest, 9-448 (1971).)
(§2) The method employed is as follows: Male mice of the Swiss Webster Strain (Charles River, Wilmington, MA) weighing 25-35 g are anesthetized with ethyl carbamate (urethan) (1.5g/kg body weight i.p.). A 25-gauge needle attached to PE-20 tubing is inserted into a caudal vein for drug administration. The lead II ECG is recorded by needle electrodes placed subcutaneously in the limbs. All data is collected on a Gould Brush recorder. Animals are observed 5 minutes before drug administration. A 5, 15, or 30 minute period following drug administration is allowed before the bolus injection of calcium chloride, 200 mg/kg i.v. or potassium chloride, 62.5 mg/kg i.v. Control mice receive 4 ml/kg of 0.9% sodium chloride i.v. Mice are observed an additional 15 minutes for arrhythmias, fibrillation, survival or death. Any compound at a dose of less than 20 mg/kg i.v. that protects 3 out of 6 mice from cardiac death in either the potassium or calcium chloride test, is considered active.

For assay [4] the test system is unchanged. As to the kind of experiment: Potassium chloride-induced arrhythmia in anesthetized mice (survival). The format is in vivo. Particulars: Mus musculus, iv, Dose = 10 mg/kg i.v.; potassium chloride 62.5 mg/kg i.v. bolus 5, 15 or 30 minutes after drug; observed 15 minutes; read-out: KCl #Mice Surviving #Mice Tested (converted).
From the text: as §1, §2

By inhibition is commonly meant the change of the read-out against control, counted positive when it falls. Turning to `c1ccc2nc(NCCCn3ccnc3)ccc2c1` [Example 5, N-[3-(1H-Imidazol-1-yl)propyl]-2-quinolinamine], testing at 100 µM in assay [1] gave an inhibition of 93%. Also, in assay [2], the “Avg. MABP in mm Hg (No. of Rats)” value is recorded as 97 (2) mm Hg. Also, the responders at 10 mg/kg is 83.3% in assay [3] and 50% in assay [4].

For the molecule `c1ccc2c(NCCCn3ccnc3)nccc2c1` [Example 14, N-[3-(1H-Imidazol-1-yl)propyl]-1-isoquinolinamine], in assay [1], the inhibition at 100 µM turned out to be 84%. Also, the “Avg. MABP in mm Hg (No. of Rats)” value in assay [2] was 121 (3) mm Hg.

Consider `Cc1cc(NCCC(C)n2ccnc2)nc2ccccc12` (stereo not shown) [Example 87, N-[3-(1H-Imidazol-1-yl)butyl]-4-methyl-2-quinolinamine], for which the “Avg. MABP in mm Hg (No. of Rats)” value in assay [2] was 111 (2) mm Hg.

For the molecule `Cc1nccc2nc(NCCCn3ccnc3)ccc12` [Example 40, N-[3-(1H-Imidazol-1-yl)propyl]-5-methyl-1,6-naphthyridin-2-amine,(E)-2-butenedioate (2:3)], at 100 µM the inhibition in assay [1] was 95%. For the same molecule, the responders at 10 mg/kg in assay [3] is 33.3%; in assay [4], 50%.

`c1cn(CCCNc2ccc3sccc3n2)cn1` [Example 62, N-[3-(1H-Imidazol-1-yl)propyl]thieno[3,2-b]-pyridin-5-amine] had an inhibition at 100 µM in assay [1] of 91%. Moreover, the “Avg. MABP in mm Hg (No. of Rats)” value in assay [2] is 105 (2) mm Hg.

`Cc1cc(NCCCn2ccnc2)nc2nc(N)ccc12` [Example 34, N²-[3-(1H-Imidazol-1-yl)propyl]-4-methyl-1,8-naphthyridine-2,7-diamine] had an inhibition at 100 µM in assay [1] of 98%. For the same molecule, the results for the responders at 10 mg/kg in assay [3] and in assay [4] were 50% and 66.7%, respectively.

Molecule `COc1ccc2nc(NCCCCc3cccnc3)cc(C)c2c1` [Example 106, 6-Methoxy-4-methyl-N-[4-(3-pyridinyl)butyl]-2-quinolinamine] showed an inhibition at 100 µM in assay [1] of 97%. Also, the “Avg. MABP in mm Hg (No. of Rats)” value in assay [2] is 120 (2) mm Hg.

In the case of `Cc1cc(NCCCCc2cccnc2)nc2ccccc12` [Example 103, 4-Methyl-N-4-(3-pyridinylbutyl)-2-quinolinamine, dihydrochloride], the “Avg. MABP in mm Hg (No. of Rats)” value in assay [2] was 87 (2) mm Hg.

In assay [1], `Cc1cc(NCCCCc2cccnc2)nc2c(C)cccc12` [Example 107, 4,8-Dimethyl-N-[4-(3-pyridinyl)butyl]-2-quinolinamine] gave an inhibition at 100 µM of 99%. Moreover, the responders at 10 mg/kg is 0% in assay [3] and 83.3% in assay [4].

`O=[N+]([O-])c1ccc(NCCCn2ccnc2)nc1` [Example 1, N-[3-(1H-Imidazol-1-yl)propyl]-5-nitro-2-pyridinamine,(Z)-2-butenedioate (1:1)]: the “Avg. MABP in mm Hg (No. of Rats)” value in assay [2] (100 mg/kg) was 121 (4) mm Hg.

With `Cc1cc(NCCCc2cccnc2)nc2ccccc12.Cl.Cl` [Example 98, 4-Methyl-N-[3-(3-pyridinyl)propyl]-2-quinolinamine, dihydrochloride], in assay [2], the “Avg. MABP in mm Hg (No. of Rats)” value was 95 (2) mm Hg. For the same molecule, the responders at 10 mg/kg in assay [3] and in assay [4] was 83.3% in each case.

Molecule `c1cncc(CCCCNc2nccc3ccccc23)c1` [Example 105, N-[4-(3-Pyridinyl)butyl]-1-isoquinolinamine, dihydrochloride] showed an inhibition at 100 µM in assay [1] of 97%. Moreover, the responders at 10 mg/kg in assay [3] was 50%; in assay [4], 66.7%.

Molecule `Cc1ccc2ccc(NCCCn3ccnc3)nc2n1` [Example 38, N-[3-(1H-Imidazol-1-yl)propyl]-7-methyl-1,8-naphthyridin-2-amine,(E)-2-butenedioate (1:2)] returned an inhibition at 100 µM in assay [1] of 98%. Further, the responders at 10 mg/kg in assay [3] is 33.3%; in assay [4], 66.7%.

Regarding `N#Cc1cc2ccccc2nc1NCCCn1ccnc1` [Example 82, 2-[[3-(1H-Imidazol-1-yl)propyl]amino]-3-quinolinecarbonitrile], in assay [2], the “Avg. MABP in mm Hg (No. of Rats)” value is 94 (2) mm Hg.

For the molecule `COc1ccc2nc(NCCCn3ccnc3)cc(C)c2c1` [Example 21, N-[3-(1H-Imidazol-1-yl)propyl]-6-methoxy-4-methyl-2-quinolinamine], in assay [1], the inhibition at 100 µM is 97%. Besides, in assay [2], the “Avg. MABP in mm Hg (No. of Rats)” value is recorded as 110 (2) mm Hg.

In turn, `Cc1ccc(C#N)c(NCCCn2ccnc2)n1` [Example 3, 2-[[3-(1H-Imidazol-1-yl)propyl]amino]-6-methyl-3-pyridinecarbonitrile] returned an inhibition at 100 µM in assay [1] of 79%. The “Avg. MABP in mm Hg (No. of Rats)” value in assay [2] is recorded as 80 (2) mm Hg.

Turning to `Cc1cc(NCCCCn2ccnc2)nc2ccccc12` [Example 101, N-[4-(1H-Imidazol-1-yl)butyl]-4-methyl-2-quinolinamine], the “Avg. MABP in mm Hg (No. of Rats)” value in assay [2] is given as 96 (2) mm Hg.

As for `c1ccc2c(c1)nc(NCCCCn1ccnc1)c1ccccc12` [Example 104, N-[4-(1H-Imidazol-1-yl)butyl]-6-phenanthridinamine], the “Avg. MABP in mm Hg (No. of Rats)” value in assay [2] is given as 93 (1) mm Hg.

`Cc1cc(NCCCn2ccnc2)nc2ccccc12` [Example 6, N-[3-(1H-Imidazol-1-yl)propyl]-4-methyl-2-quinolinamine]: at 100 µM the inhibition in assay [1] was 98%. The “Avg. MABP in mm Hg (No. of Rats)” value in assay [2] is listed as 100 (3) mm Hg.

On to `Cc1ccc(C#N)c(NCCCCCn2ccnc2)n1` [Example 90, 2-[[5-(1H-Imidazol-1-yl)pentyl]amino]-6-methyl-3-pyridinecarbonitrile], for which the “Avg. MABP in mm Hg (No. of Rats)” value in assay [2] is on record as 116 (2) mm Hg. Besides, the responders at 10 mg/kg in assay [3] is 0%; in assay [4], 50%.

With `O=[N+]([O-])c1ccc(NCCCn2ccnc2)nc1` [Example 11, N-[3-(1H-imidazol-1-yl)propyl]-5-nitro-2-pyridinamine], the “Avg. MABP in mm Hg (No. of Rats)” value in assay [2] (100 mg/kg) is 119 (2) mm Hg. Besides, the figures for the responders at 10 mg/kg in assay [3] and in assay [4] were 0% and 50%, respectively.
